Where two headings read alike, the source gives them in different places.
Assays:
rodent = conditions: cited from earlier work
[1] = tested on: mRNA expressed from the genes (A) to (D) in rat liver; test: Behavior of genes (mRNA expression level, oligo-DNA microarray) in rat liver after 28-day oral administration; assay type: in vivo
How it was run: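 Male F344 SPF rats, 5 weeks old, four per group, received carcinogens, non-carcinogens or solvent vehicle by oral gavage once daily for 28 days. Liver total RNA was then extracted. Changes of ≥1.5-fold or ≤1/1.5 versus vehicle control, in a consistent direction across carcinogens, counted as significant.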

[2] = (C), Unigene Rn.120914, defined direction +, rat liver, oral once daily 28 days

ClC(Cl)Cl [TS056, Chloroform]
Carcinogenicity (rodent; classification of the substance (C+/C−)): C+ | Behavior of gene caused by administration of chemical substance, Gene No. 154 ([1]; rat, in vivo): + | Behavior of gene caused by administration of chemical substance, Gene No. 533 ([1]; rat, in vivo): + | Behavior of gene caused by administration of chemical substance, Gene No. 725 ([1]; rat, in vivo): + | Behavior of gene caused by administration of chemical substance, Gene No. 813 ([1]; rat, in vivo): + | Behavior of gene caused by administration of chemical substance, Gene No. 893 ([1]; rat, in vivo): + | Behavior of gene caused by administration of chemical substance, Gene No. 1119 ([1]; rat, in vivo): + | Behavior of gene caused by administration of chemical substance, Gene No. 1131 ([1]; rat, in vivo): + | Behavior of gene caused by administration of chemical substance, Gene No. 1163 ([1]; rat, in vivo): + | Behavior of gene caused by administration of chemical substance, Gene No. 1334 ([1]; rat, in vivo): + | Behavior of gene caused by administration of chemical substance, Gene No. 1494 ([1]; rat, in vivo): + | Behavior of gene caused by administration of chemical substance, Gene No. 1562 ([1]; rat, in vivo): + | Behavior of gene caused by administration of chemical substance, Gene No. 1741 ([1]; rat, in vivo): + | Behavior of gene caused by administration of chemical substance, Gene No. 1993 ([1]; rat, in vivo): + | Behavior of gene caused by administration of chemical substance, Gene No. 2026 ([1]; rat, in vivo): + | Behavior of gene caused by administration of chemical substance, Gene No. 2045 ([1]; rat, in vivo): − | Behavior of gene caused by administration of chemical substance, Gene No. 2203 ([1]; rat, in vivo): − | Behavior of gene caused by administration of chemical substance, Gene No. 2494 ([1]; rat, in vivo): + | Behavior of gene caused by administration of chemical substance, Gene No. 2546 ([1]; rat, in vivo): + | Behavior of gene caused by administration of chemical substance, Gene No. 3776 ([1]; rat, in vivo): + | Behavior of gene caused by administration of chemical substance, Gene No. 3929 ([1]; rat, in vivo): + | Behavior of gene caused by administration of chemical substance, Gene No. 4095 ([1]; rat, in vivo): + | Behavior of gene caused by administration of chemical substance, Gene No. 4218 ([1]; rat, in vivo): − | Behavior of gene caused by administration of chemical substance, Gene No. 4846 ([1]; rat, in vivo): − | Behavior of gene caused by administration of chemical substance, Gene No. 4973 ([1]; rat, in vivo): + | Behavior of gene caused by administration of chemical substance, Gene No. 5600 ([1]; rat, in vivo): − | Behavior of gene caused by administration of chemical substance, Gene No. 5634 ([1]; rat, in vivo): + | Behavior of gene caused by administration of chemical substance, Gene No. 5726 ([1]; rat, in vivo): − | Behavior of gene caused by administration of chemical substance, Gene No. 5878 ([1]; rat, in vivo): + | Behavior of gene caused by administration of chemical substance, Gene No. 6026 ([1]; rat, in vivo): + | Behavior of gene caused by administration of chemical substance, Gene No. 6182 ([1]; rat, in vivo): − | Behavior of gene caused by administration of chemical substance, Gene No. 6303 ([1]; rat, in vivo): + | Behavior of gene caused by administration of chemical substance, Gene No. 6620 ([1]; rat, in vivo): + | Behavior of gene caused by administration of chemical substance, Gene No. 6742 ([1]; rat, in vivo): +

CC(N)=O [TS067, Acetamide]
Carcinogenicity (rodent; in vivo): C+ | Behavior of gene caused by administration of chemical substance, Gene No. 4846 ([1]; (A), Unigene Rn.144554, defined direction +, rat liver, oral once daily 28 days): + | Behavior of gene caused by administration of chemical substance, Gene No. 4218 ([1]; (A), Unigene Rn.167075, defined direction +, rat liver, oral once daily 28 days, significant = 1.5 times or more or 1/1.5 or less of control): − | Behavior of gene caused by administration of chemical substance, Gene No. 2026 ([1]; (A), Unigene Rn.167075, defined direction −, rat liver, oral once daily 28 days): + | Behavior of gene caused by administration of chemical substance, Gene No. 6182 ([1]; (A), Unigene Rn.5834, defined direction +, rat liver, oral once daily 28 days): − | Behavior of gene caused by administration of chemical substance, Gene No. 5600 ([1]; (A), Unigene Rn.9836, defined direction +, rat liver, oral once daily 28 days): − | Behavior of gene caused by administration of chemical substance, Gene No. 1494 ([1]; (B), Unigene Rn.1430, defined direction −, rat liver, oral once daily 28 days): − | Behavior of gene caused by administration of chemical substance, Gene No. 2045 ([1]; (B), Unigene Rn.19329, defined direction +, rat liver, oral once daily 28 days): − | Behavior of gene caused by administration of chemical substance, Gene No. 2203 ([1]; (B), Unigene Rn.21240, defined direction +, rat liver, oral once daily 28 days): − | Behavior of gene caused by administration of chemical substance, Gene No. 533 ([1]; (C), Unigene Rn.106184, defined direction +, rat liver, oral once daily 28 days): + | Behavior of gene caused by administration of chemical substance, Gene No. 725 ([1]; (C), Unigene Rn.108075, defined direction −, rat liver, oral once daily 28 days): − | Behavior of gene caused by administration of chemical substance, Gene No. 1163 ([1]; (C), Unigene Rn.11766, defined direction +, rat liver, oral once daily 28 days): − | Behavior of gene caused by administration of chemical substance, Gene No. 4973 ([1]; (C), Unigene Rn.118529, defined direction −, rat liver, oral once daily 28 days): − | Behavior of gene caused by administration of chemical substance, Gene No. 4095 ([1]; (C), Unigene Rn.119024, defined direction −, rat liver, oral once daily 28 days): − | Behavior of gene caused by administration of chemical substance, Gene No. 1334 [1, 2]: − | Behavior of gene caused by administration of chemical substance, Gene No. 6620 [1, 2]: − | Behavior of gene caused by administration of chemical substance, Gene No. 6303 ([1]; (C), Unigene Rn.123063, defined direction −, rat liver, oral once daily 28 days): + | Behavior of gene caused by administration of chemical substance, Gene No. 5878 ([1]; (C), Unigene Rn.143213, defined direction −, rat liver, oral once daily 28 days): − | Behavior of gene caused by administration of chemical substance, Gene No. 1131 ([1]; (C), Unigene Rn.144946, defined direction −, rat liver, oral once daily 28 days): − | Behavior of gene caused by administration of chemical substance, Gene No. 1562 ([1]; (C), Unigene Rn.14744, defined direction −, rat liver, oral once daily 28 days): − | Behavior of gene caused by administration of chemical substance, Gene No. 1741 ([1]; (C), Unigene Rn.1647, defined direction −, rat liver, oral once daily 28 days): − | Behavior of gene caused by administration of chemical substance, Gene No. 893 ([1]; (C), Unigene Rn.164817, defined direction +, rat liver, oral once daily 28 days): − | Behavior of gene caused by administration of chemical substance, Gene No. 6026 ([1]; (C), Unigene Rn.167685, defined direction −, rat liver, oral once daily 28 days): − | Behavior of gene caused by administration of chemical substance, Gene No. 154 ([1]; (C), Unigene Rn.185941, defined direction −, rat liver, oral once daily 28 days): + | Behavior of gene caused by administration of chemical substance, Gene No. 1993 ([1]; (C), Unigene Rn.18728, defined direction −, rat liver, oral once daily 28 days): − | Behavior of gene caused by administration of chemical substance, Gene No. 813 ([1]; (C), Unigene Rn.201760, defined direction +, rat liver, oral once daily 28 days): − | Behavior of gene caused by administration of chemical substance, Gene No. 2494 ([1]; (C), Unigene Rn.23969, defined direction +, rat liver, oral once daily 28 days): − | Behavior of gene caused by administration of chemical substance, Gene No. 2546 ([1]; (C), Unigene Rn.24561, defined direction −, rat liver, oral once daily 28 days): − | Behavior of gene caused by administration of chemical substance, Gene No. 3776 ([1]; (C), Unigene Rn.43232, defined direction −, rat liver, oral once daily 28 days): − | Behavior of gene caused by administration of chemical substance, Gene No. 3929 ([1]; (C), Unigene Rn.4620, defined direction +, rat liver, oral once daily 28 days): − | Behavior of gene caused by administration of chemical substance, Gene No. 1119 ([1]; (C), Unigene Rn.9757, defined direction +, rat liver, oral once daily 28 days): − | Behavior of gene caused by administration of chemical substance, Gene No. 6742 ([1]; (C), Unigene Rn.9779, defined direction +, rat liver, oral once daily 28 days): − | Behavior of gene caused by administration of chemical substance, Gene No. 5634 ([1]; (C), Unigene Rn.9862, defined direction −, rat liver, oral once daily 28 days): − | Behavior of gene caused by administration of chemical substance, Gene No. 5726 ([1]; (D), Unigene Rn.9939, defined direction −, rat liver, oral once daily 28 days): −
